{"source": "paper PMC7822874", "about": "“Chemoprotective antimalarials identified through quantitative high-throughput screening of Plasmodium blood and liver stage parasites” (Scientific Reports, 2021)", "key": {"[1]": {"test_system": "Plasmodium falciparum Dd2 asexual blood stage parasites", "assay": "microbe, parasite or virus in culture", "set-up": "species or system Plasmodium falciparum Dd2 in human erythrocytes; single determination (one 11-point concentration-response curve)", "settings": "Plasmodium falciparum, DD2, Erythrocyte, 72 h; read-out: AC50"}, "[2]": {"test_system": "HepG2-A16-CD81EGFP cells", "settings": "average of 2 wells, repeat 2; for HepG2 viability signal, 1 uM, repeat 2: nominal 1 uM (10 mM stock), […] for 15 mM, 1.2 uM for 12 mM, 2 uM for 20 mM stock; for HepG2 viability signal, 3 uM, repeat 2: nominal 3 uM (10 mM stock), 4.5 uM for 15 mM, 3.6 uM for 12 mM, 6 uM for 20 mM stock"}, "[3]": {"assay": "in vitro", "settings": "human, HepG2-A16-CD81EGFP cells, uninfected"}, "[4]": {"test_system": "P. berghei-ANKA-GFP-LucCON liver stage parasites in HepG2-A16-CD81EGFP cells", "assay": "P. berghei liver stage Pb-Luc assay, Method 1 (UCSD, 1536-well); for all read-outs here: reference of the scale not given here", "type": "cell-based, Plasmodium berghei", "settings": "Plasmodium berghei, 48 h, average of 2 wells, 1536-well plate; for activity at 1 µM: nominal 1 uM (10 mM stock), […] for 15 mM, 1.2 uM for 12 mM, 2 uM for 20 mM stock; for activity at 3 µM: nominal 3 uM (10 mM stock), 4.5 uM for 15 mM, 3.6 uM for 12 mM, 6 uM for 20 mM stock"}, "[5]": {"settings": "repeat 1, read-out: Pb-Luc signal, 1 uM, repeat 1"}, "[6]": {"settings": "repeat 2, read-out: Pb-Luc signal, 1 uM, repeat 2"}, "[7]": {"settings": "repeat 3, read-out: Pb-Luc signal, 1 uM, repeat 3"}, "[8]": {"settings": "repeat 1, read-out: Pb-Luc signal, 3 uM, repeat 1"}, "[9]": {"settings": "repeat 2, read-out: Pb-Luc signal, 3 uM, repeat 2"}, "[10]": {"settings": "repeat 3, read-out: Pb-Luc signal, 3 uM, repeat 3"}}, "note": "Like-named read-outs stand apart in the source and are kept apart here."}
{"compound": "COc1cccc(C2C(C(=O)Nc3ccc(C)cc3C)=C(C)Nc3c(C(=O)Nc4ccccc4)cnn32)c1", "note": "(stereo not shown) [NCGC00126286-01]", "values": [{"measurement": "AC50", "setting": "[1]", "value": 2110, "unit": "nM"}, {"measurement": "HepG2 viability signal, 1 uM, repeat 2", "setting": "[2]", "value": 98.62, "unit": "%"}, {"measurement": "HepG2 viability signal, 3 uM, repeat 2", "setting": "[2]", "value": 98.36, "unit": "%"}, {"measurement": "viability at 48 h, 1 µM", "setting": "[3]", "value": 94.8, "unit": "%"}, {"measurement": "viability at 48 h, 3 µM", "setting": "[3]", "value": 99.4, "unit": "%"}, {"measurement": "activity at 1 µM", "setting": "[4]; [5]", "value": 97.2, "unit": "%"}, {"measurement": "activity at 1 µM", "setting": "[4]; [6]", "value": 125, "unit": "%"}, {"measurement": "activity at 1 µM", "setting": "[4]; [7]", "value": 153, "unit": "%"}, {"measurement": "activity at 3 µM", "setting": "[4]; [8]", "value": 94.7, "unit": "%"}, {"measurement": "activity at 3 µM", "setting": "[4]; [9]", "value": 93.4, "unit": "%"}, {"measurement": "activity at 3 µM", "setting": "[4]; [10]", "value": 100, "unit": "%"}]}
{"compound": "CC1=C(C(=O)Nc2ccc(C)cc2C)C(c2ccc(Br)cc2)n2ncc(C(=O)Nc3cccc(C)c3)c2N1", "note": "(stereo not shown) [NCGC00126300-01]", "values": [{"measurement": "AC50", "setting": "[1]", "value": 3350, "unit": "nM"}, {"measurement": "HepG2 viability signal, 1 uM, repeat 2", "setting": "[2]", "value": 95.30, "unit": "%"}, {"measurement": "HepG2 viability signal, 3 uM, repeat 2", "setting": "[2]", "value": 90.59, "unit": "%"}, {"measurement": "viability at 48 h, 1 µM", "setting": "[3]", "value": 102, "unit": "%"}, {"measurement": "viability at 48 h, 3 µM", "setting": "[3]", "value": 94.6, "unit": "%"}, {"measurement": "activity at 1 µM", "setting": "[4]; [5]", "value": 94.7, "unit": "%"}, {"measurement": "activity at 1 µM", "setting": "[4]; [6]", "value": 120, "unit": "%"}, {"measurement": "activity at 1 µM", "setting": "[4]; [7]", "value": 115, "unit": "%"}, {"measurement": "activity at 3 µM", "setting": "[4]; [8]", "value": 75.3, "unit": "%"}, {"measurement": "activity at 3 µM", "setting": "[4]; [9]", "value": 87.7, "unit": "%"}, {"measurement": "activity at 3 µM", "setting": "[4]; [10]", "value": 102, "unit": "%"}]}
{"compound": "CC1=C(C(=O)Nc2ccc(C)cc2C)C(c2cc(Br)ccc2F)n2ncc(C(=O)Nc3ccc(C)cc3)c2N1", "note": "(stereo not shown) [NCGC00126328-01]", "values": [{"measurement": "AC50", "setting": "[1]", "value": 1500, "unit": "nM"}, {"measurement": "HepG2 viability signal, 1 uM, repeat 2", "setting": "[2]", "value": 98.10, "unit": "%"}, {"measurement": "HepG2 viability signal, 3 uM, repeat 2", "setting": "[2]", "value": 99.55, "unit": "%"}, {"measurement": "viability at 48 h, 1 µM", "setting": "[3]", "value": 100, "unit": "%"}, {"measurement": "viability at 48 h, 3 µM", "setting": "[3]", "value": 107, "unit": "%"}, {"measurement": "activity at 1 µM", "setting": "[4]; [5]", "value": 99.2, "unit": "%"}, {"measurement": "activity at 1 µM", "setting": "[4]; [6]", "value": 113, "unit": "%"}, {"measurement": "activity at 1 µM", "setting": "[4]; [7]", "value": 121, "unit": "%"}, {"measurement": "activity at 3 µM", "setting": "[4]; [8]", "value": 61.3, "unit": "%"}, {"measurement": "activity at 3 µM", "setting": "[4]; [9]", "value": 103, "unit": "%"}, {"measurement": "activity at 3 µM", "setting": "[4]; [10]", "value": 73.4, "unit": "%"}]}
{"compound": "CC1=C(C(=O)Nc2ccc(C)cc2C)C(c2ccc([N+](=O)[O-])cc2)n2ncc(C(=O)Nc3ccc(F)cc3)c2N1", "note": "(stereo not shown) [NCGC00126356-01]", "values": [{"measurement": "AC50", "setting": "[1]", "value": 2990, "unit": "nM"}, {"measurement": "HepG2 viability signal, 1 uM, repeat 2", "setting": "[2]", "value": 98.93, "unit": "%"}, {"measurement": "HepG2 viability signal, 3 uM, repeat 2", "setting": "[2]", "value": 92.77, "unit": "%"}, {"measurement": "viability at 48 h, 1 µM", "setting": "[3]", "value": 98.5, "unit": "%"}, {"measurement": "viability at 48 h, 3 µM", "setting": "[3]", "value": 94.6, "unit": "%"}, {"measurement": "activity at 1 µM", "setting": "[4]; [5]", "value": 110, "unit": "%"}, {"measurement": "activity at 1 µM", "setting": "[4]; [6]", "value": 107, "unit": "%"}, {"measurement": "activity at 1 µM", "setting": "[4]; [7]", "value": 122, "unit": "%"}, {"measurement": "activity at 3 µM", "setting": "[4]; [8]", "value": 80.3, "unit": "%"}, {"measurement": "activity at 3 µM", "setting": "[4]; [9]", "value": 94, "unit": "%"}, {"measurement": "activity at 3 µM", "setting": "[4]; [10]", "value": 83.4, "unit": "%"}]}
{"compound": "CCc1cccc(-n2c(=O)c3cccnc3n2CC(=O)NCc2ccccc2)c1", "note": "[NCGC00128448-01]", "values": [{"measurement": "AC50", "setting": "[1]", "value": 1680, "unit": "nM"}, {"measurement": "HepG2 viability signal, 1 uM, repeat 2", "setting": "[2]", "value": 105.26, "unit": "%"}, {"measurement": "HepG2 viability signal, 3 uM, repeat 2", "setting": "[2]", "value": 100.08, "unit": "%"}, {"measurement": "viability at 48 h, 1 µM", "setting": "[3]", "value": 105, "unit": "%"}, {"measurement": "viability at 48 h, 3 µM", "setting": "[3]", "value": 100, "unit": "%"}, {"measurement": "activity at 1 µM", "setting": "[4]; [5]", "value": 105, "unit": "%"}, {"measurement": "activity at 1 µM", "setting": "[4]; [6]", "value": 86.8, "unit": "%"}, {"measurement": "activity at 1 µM", "setting": "[4]; [7]", "value": 118, "unit": "%"}, {"measurement": "activity at 3 µM", "setting": "[4]; [8]", "value": 150, "unit": "%"}, {"measurement": "activity at 3 µM", "setting": "[4]; [9]", "value": 109, "unit": "%"}, {"measurement": "activity at 3 µM", "setting": "[4]; [10]", "value": 92.9, "unit": "%"}]}
{"compound": "CCN1CCN(c2cc(C)c3cc(NC(=O)c4cc(OC)c(OC)c(OC)c4)ccc3n2)CC1", "note": "[NCGC00137500-01]", "values": [{"measurement": "AC50", "setting": "[1]", "value": 1330, "unit": "nM"}, {"measurement": "HepG2 viability signal, 1 uM, repeat 2", "setting": "[2]", "value": 103.37, "unit": "%"}, {"measurement": "HepG2 viability signal, 3 uM, repeat 2", "setting": "[2]", "value": 106.17, "unit": "%"}, {"measurement": "viability at 48 h, 1 µM", "setting": "[3]", "value": 100, "unit": "%"}, {"measurement": "viability at 48 h, 3 µM", "setting": "[3]", "value": 103, "unit": "%"}, {"measurement": "activity at 1 µM", "setting": "[4]; [5]", "value": 125, "unit": "%"}, {"measurement": "activity at 1 µM", "setting": "[4]; [6]", "value": 156, "unit": "%"}, {"measurement": "activity at 1 µM", "setting": "[4]; [7]", "value": 138, "unit": "%"}, {"measurement": "activity at 3 µM", "setting": "[4]; [8]", "value": 126, "unit": "%"}, {"measurement": "activity at 3 µM", "setting": "[4]; [9]", "value": 103, "unit": "%"}, {"measurement": "activity at 3 µM", "setting": "[4]; [10]", "value": 114, "unit": "%"}]}
{"compound": "CCOC(=O)c1c(S(=O)(=O)N2CCCC(C(=O)N3CCN(c4cccc(C)c4C)CC3)C2)c(C)n(C)c1C", "note": "(stereo not shown) [NCGC00138143-01]", "values": [{"measurement": "AC50", "setting": "[1]", "value": 1060, "unit": "nM"}, {"measurement": "HepG2 viability signal, 1 uM, repeat 2", "setting": "[2]", "value": 101.67, "unit": "%"}, {"measurement": "HepG2 viability signal, 3 uM, repeat 2", "setting": "[2]", "value": 102.57, "unit": "%"}, {"measurement": "viability at 48 h, 1 µM", "setting": "[3]", "value": 96.4, "unit": "%"}, {"measurement": "viability at 48 h, 3 µM", "setting": "[3]", "value": 99.6, "unit": "%"}, {"measurement": "activity at 1 µM", "setting": "[4]; [5]", "value": 90.2, "unit": "%"}, {"measurement": "activity at 1 µM", "setting": "[4]; [6]", "value": 90.3, "unit": "%"}, {"measurement": "activity at 1 µM", "setting": "[4]; [7]", "value": 120, "unit": "%"}, {"measurement": "activity at 3 µM", "setting": "[4]; [8]", "value": 83.2, "unit": "%"}, {"measurement": "activity at 3 µM", "setting": "[4]; [9]", "value": 98.3, "unit": "%"}, {"measurement": "activity at 3 µM", "setting": "[4]; [10]", "value": 108, "unit": "%"}]}
{"compound": "Cc1ccc(C)c(Oc2c(C(F)(F)F)oc3c(CN4CCN(C)CC4)c(O)ccc3c2=O)c1", "note": "[NCGC00141020-01]", "values": [{"measurement": "AC50", "setting": "[1]", "value": 750, "unit": "nM"}, {"measurement": "HepG2 viability signal, 1 uM, repeat 2", "setting": "[2]", "value": 106.86, "unit": "%"}, {"measurement": "HepG2 viability signal, 3 uM, repeat 2", "setting": "[2]", "value": 105.57, "unit": "%"}, {"measurement": "viability at 48 h, 1 µM", "setting": "[3]", "value": 110, "unit": "%"}, {"measurement": "viability at 48 h, 3 µM", "setting": "[3]", "value": 115, "unit": "%"}, {"measurement": "activity at 1 µM", "setting": "[4]; [5]", "value": 97.7, "unit": "%"}, {"measurement": "activity at 1 µM", "setting": "[4]; [6]", "value": 131, "unit": "%"}, {"measurement": "activity at 1 µM", "setting": "[4]; [7]", "value": 113, "unit": "%"}, {"measurement": "activity at 3 µM", "setting": "[4]; [8]", "value": 86, "unit": "%"}, {"measurement": "activity at 3 µM", "setting": "[4]; [9]", "value": 92.3, "unit": "%"}, {"measurement": "activity at 3 µM", "setting": "[4]; [10]", "value": 113, "unit": "%"}]}
